Results on 14 compounds are retold here after patent publication US8106197B2, “Aminoheteroaryl compounds as protein kinase inhibitors” (Pfizer Inc., priority 2003, dated 2012).

Experiment [1] has as its target T1, GST fusion protein containing the Met kinase domain (Homo sapiens, UniProt P08581).
T1 construct: Purified GST fusion protein containing the Met kinase domain, SUGEN, Inc
Nature of the experiment: MET transphosphorylation assay (ELISA, poly(glu-tyr) substrate). The format is biochemical. On the technique in general: An ELISA detects its analyte on a solid surface through an enzyme-linked reagent.
Experimental: MET Transphosphorylation Assay
This assay is used to measure phosphotyrosine levels on a poly(glutamic acid:tyrosine, 4:1) substrate as a means for identifying agonists/antagonists of met transphosphorylation of the substrate.
Purified GST fusion protein containing the Met kinase domain, SUGEN, Inc.
10% aqueous (MilliQue H2O) DMSO.
2× Kinase Dilution Buffer: for 100 mL, mix 10 mL 1M HEPES at pH 7.5 with 0.4 mL 5% BSA/PBS, 0.2 mL 0.1 M sodium orthovanadate and 1 mL 5M sodium chloride in 88.4 mL dH2O.
4× ATP Reaction Mixture: for 10 mL, mix 0.4 mL 1 M manganese chloride and 0.02 mL 0.1 M ATP in 9.56 mL dH2O.
4× Negative Controls Mixture: for 10 mL, mix 0.4 mL 1 M manganese chloride in 9.6 mL dH2O.
Antibody Dilution Buffer: for 100 mL, mix 10 mL 5% BSA/PBS, 0.5 mL 5% Carnation® Instant Milk in PBS and 0.1 mL 0.1 M sodium orthovanadate in 88.4 mL TBST.
Rabbit polyclonal antophosphotyrosine antibody, SUGEN, Inc.
Goat anti-rabbit horseradish peroxidase conjugated antibody, Biosource, Inc.
ABTS Solution: for 1 L, mix 19.21 g citric acid, 35.49 g Na2HPO4 and 500 mg ABTS with sufficient dH2O to make 1 L.
ABTS/H2O2: mix 15 mL ABST solution with 2 μL H2O2 five minutes before use.
Coat ELISA plates with 2 μg Poly(Glu-Tyr) in 100 μL PBS, hold-overnight at 4° C.
Block plate with 150 μL of 5% BSA/PBS for 60 min.
Wash plate twice with PBS then once with 50 mM Hepes buffer pH 7.4. […]

For a further experiment, the target named is T2, HGFR (Homo sapiens, UniProt P08581).
T2 construct: purchased Upstate 14-526
T2 sequence (P08581 974-1390 limits assumed): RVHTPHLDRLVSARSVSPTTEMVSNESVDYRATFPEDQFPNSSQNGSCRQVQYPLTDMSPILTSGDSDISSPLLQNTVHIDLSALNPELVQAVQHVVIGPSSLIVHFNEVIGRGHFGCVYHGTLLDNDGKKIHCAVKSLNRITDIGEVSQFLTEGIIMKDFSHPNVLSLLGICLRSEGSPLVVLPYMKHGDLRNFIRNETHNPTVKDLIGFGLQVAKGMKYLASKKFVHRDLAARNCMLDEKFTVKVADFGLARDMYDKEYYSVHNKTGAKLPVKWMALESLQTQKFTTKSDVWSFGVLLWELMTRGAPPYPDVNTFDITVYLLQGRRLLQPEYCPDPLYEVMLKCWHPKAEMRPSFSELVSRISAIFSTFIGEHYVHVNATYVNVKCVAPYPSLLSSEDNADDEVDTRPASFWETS
In words: HGFR continuous-coupled spectrophotometric assay. The class given is biochemical. The conditions noted are these: for I(%): Table 3, Ki(μM) or I(%), test concentration not given; for % inhibition / inhibition at 0.05 µM: Table 5, percent c-MET inhibition at 50 nM; for % inhibition: 0.05 µM.

T1 sequence (P08581 1078-1345 limits assumed): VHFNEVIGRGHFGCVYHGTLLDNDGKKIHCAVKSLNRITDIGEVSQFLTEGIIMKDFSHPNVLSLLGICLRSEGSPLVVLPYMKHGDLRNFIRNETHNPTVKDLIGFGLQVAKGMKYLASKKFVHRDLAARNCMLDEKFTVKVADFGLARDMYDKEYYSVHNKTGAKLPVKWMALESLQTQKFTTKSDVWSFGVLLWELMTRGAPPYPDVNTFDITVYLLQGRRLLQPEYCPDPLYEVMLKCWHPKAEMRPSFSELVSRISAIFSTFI

As for `Nc1ncc(-c2ccccc2)cc1OCc1c(Cl)cccc1Cl` [Example I-9, 3-(2,6-Dichloro-benzyloxy)-5-phenyl-pyridin-2-ylamine], in experiment [1], the IC50 (usually the concentration at which inhibition is half-maximal) was 3.9 µM.

As to `Nc1ncc(-c2ccc(C(=O)N3CCC(N4CCCC4)CC3)cc2)cc1OCC1CCCCC1` [Example I-628, [4-(6-Amino-5-cyclohexylmethoxy-pyridin-3-yl)-phenyl]-(4-pyrrolidin-1-yl-piperidin-1-yl)-methanone], the “I(%)” value at HGFR is given as 7%.

As for `CC(Oc1cc(-c2ccc(C(=O)N3CCC(N4CCCC4)CC3)cc2)cnc1N)c1ccc(C(=O)NCCc2cccc(O)c2)cc1` (centres unmarked) [Example I-629, 4-(1-{2-Amino-5-[4-(4-pyrrolidin-1-yl-piperidine-1-carbonyl)-phenyl]-pyridin-3-yloxy}-ethyl)-[2-(3-hydroxy-phenyl)-ethyl]-benzamide], the “I(%)” value at HGFR stood at 7%.

Consider `CC(Oc1cc(-c2ccc(C(=O)N3CCC(N4CCCC4)CC3)cc2)cnc1N)c1ccc(C(=O)NC2CCN(Cc3ccccc3)CC2)cc1` (centres unmarked) [Example I-631], for which the “I(%)” value on HGFR amounted to 3%.

As for `CC(Oc1cc(-c2ccc(C(=O)N3CCC(N4CCCC4)CC3)cc2)cnc1N)c1ccc(C(=O)NCCCN2CCCC2=O)cc1` (centres unmarked) [Example I-632, 4-(1-{2-Amino-5-[4-(4-pyrrolidin-1-yl-piperidine-1-carbonyl)-phenyl)-pyridin-3-yloxy}-ethyl)-[3-(2-oxo-pyrrolidin-1-yl)-propyl]-benzamide], the “I(%)” value on HGFR stood at 0%.

Consider `CC1CN(C(=O)c2ccc(-c3cnc(N)c(OCc4c(Cl)cccc4Cl)c3)cc2)CC(C)N1` (centres unmarked) [Example I-634, {4-[6-Amino-5-(2,6-dichloro-benzyloxy)-pyridin-3-yl]-phenyl}-(3,5-dimethyl-piperazin-1-yl)-methanone], for which the “I(%)” value at HGFR turned out to be 10%.

Turning to `Nc1ncc(-c2ccc(C(=O)N3CCC(N4CCCC4)CC3)cc2)cc1OCc1ccccc1` [Example I-649, [4-(6-Amino-5-benzyloxy-pyridin-3-yl)-phenyl]-(4-pyrrolidin-1-yl-piperidin-1-yl)-methanone], the “I(%)” value on HGFR is given as 29%.

As for `CC(Oc1cc(-c2nccn2C)cnc1N)c1c(Cl)ccc(F)c1Cl` (centres unmarked) [Example I-652], the “I(%)” value on HGFR is listed as 11%.

Consider `Cc1cc(C)c(COc2cc(-c3ccc(C(=O)N4CCC(N5CCCC5)CC4)cc3)cnc2N)c(C)c1` [Example I-653, {4-[6-Amino-5-(2,4,6-trimethyl-benzyloxy)-pyridin-3-yl]-phenyl}-(4-pyrrolidin-1-yl-piperidin-1-yl)-methanone], for which the “I(%)” value at HGFR turned out to be 2%.

For the compound `Cc1cc(C)c(C)c(COc2cc(-c3ccc(C(=O)N4CCC(N5CCCC5)CC4)cc3)cnc2N)c1C` [Example I-654, {4-[6-Amino-5-(2,3,5,6-tetramethyl-benzyloxy)-pyridin-3-yl]-phenyl)-(4-pyrrolidin-1-yl-piperidin-1-yl)-methanone], on HGFR, the “I(%)” value worked out at 9%.

On to `CC(Oc1cc(-c2ccc(C(=O)N[C@H]3CC[C@H](O)CC3)cc2)cnc1N)c1c(Cl)ccc(F)c1Cl` (some centres unmarked) [drawing 1011], for which, on HGFR, the “% inhibition” value is “% inhibition = 72”.

In the case of `CC(Oc1cc(-c2ccc(C(=O)N[C@H]3CC[C@H](O)CC3)cc2)cnc1N)c1c(Cl)ccc(F)c1Cl` (some centres unmarked) [drawing 1039], the inhibition (commonly how much of the control response was suppressed) at 0.05 µM against HGFR stood at 73%.

`CC(Oc1cc(-c2ccc(C(=O)N[C@H](C)C3CCCCC3)cc2)cnc1N)c1c(Cl)ccc(F)c1Cl` (some centres unmarked) [drawing 1068] registered an inhibition at 0.05 µM at HGFR of 60%.

`CC(Oc1cc(-c2ccc(C(=O)N[C@H](C)C3CCCCC3)cc2)cnc1N)c1c(Cl)ccc(F)c1Cl` (some centres unmarked) [drawing 1071]: the “% inhibition” value at HGFR was “% inhibition = 54”.
